Where two headings read alike, the source gives them in different places.
Key:
SNAP-NOPr = target: T1, SNAP-NOPr (Homo sapiens, UniProt P41146); assay: Confocal imaging of fluorescent ligand binding, live FlpIn CHO cells stably expressing SNAP-NOPr; assay type: cell-based; conditions: for fluorescent ligand binding (confocal images): 1 μM, 30 min at 37 °C, live cells
T1 construct: expressed in transfected cells
Procedure: To first assess whether the library of fluorescent ligands (13a-h and 14h) can specifically label the NOPr, single time point confocal images of live FlpIn CHO cells stably expressing SNAP-NOPr were captured. Cells were incubated with fluorescent ligands 13a-h and 14h (1 μM) to assess the fluorescent ligand binding.
3 Single time point confocal images of live FlpIn CHO cells stably expressing SNAP-NOPr. Cells were labeled with SNAP-AF488 (cyan) to visualize SNAP-NOPr expression (a–d) and incubated for 30 min at 37 °C with fluorescent ligands 13e–h (1 μM) (magenta) to visualize fluorescent ligand binding (e-h).
For all experiments, live cell single time point confocal images were captured using a Zeiss Cell Discoverer 7 LSM 900 high-content automated confocal microscope. Two images per well were captured using a 10× objective and the Cy5 channel (650 λex, 673 λem), the AF488 (495λex, 520 λem) channel, and the CFP (433λex, 475 λem) channel. All cells were imaged in an imaging buffer containing (2 mM sodium pyruvate, 145 mM NaCl, 10 mM D-glucose, 5 mM KCl, 1 mM MgSO4·7H2O, 10 mM HEPES, 1.3 mM CaCl2 dihydrate, and 1.5 mM NaHCO3).
Stably expressing SNAP-NOPr FlpIn-CHO cells suspended in DMEM (D6421) (100 μL) were seeded (10,000 cells/well) into 96-well poly-D-lysine (PDL)-coated Greiner black polyester plates. Cells were incubated for 48 h at 37 °C and 5% CO2 prior to imaging.
Before measurement, the media were removed, and cells were washed with 90 μL of imaging buffer. Cells were then incubated with SNAP-AF488 (New England Biolabs) (0.5 μg·mL^–1) in imaging buffer for 30 min at 37 °C. After incubation, the SNAP-AF488 solution was aspirated and cells were rinsed twice with imaging buffer (90 μL). […] Cells were incubated for 30 min at 37 °C and 5% CO2 before the images were captured.

NOPr [1] = target: T2, NOPr (Homo sapiens, UniProt P41146); assay: BRET G-protein activation (GPA) assay, Gαi2, agonist and antagonist mode, Flp-In-NOPr-CHO cells; assay type: cell-based; conditions: for reduction in inhibitory potency from N-Boc congener to fluorescent ligand: 11g to 13g, 11h to 13h and 14h
NOPr [2] = target: T2, NOPr; assay: TR-FRET equilibrium saturation binding, Lumi4Tb-SNAP-NOPr CHO membranes; conditions: for binding behaviour at the highest concentration tested: 400 nM
NOPr [3] = target: T2, NOPr; assay: TR-FRET kinetic binding, Lumi4-Tb-SNAP-NOPr-CHO membranes; conditions: for Kd: kinetically derived, 15 min, n = 3
NOPr [4] = conditions: Table 4; literature values, reference number not given; read-out: literature K i; cited from earlier work
CHOhMOPr = target: CHOhMOPr; design: method as in Spagnolo et al.,1; conditions: ref Spagnolo et al.,1; cited from earlier work
NOPr [5] = target: T2, NOPr; assay: TR-FRET competition binding with tracer 13h in presence and absence of Na+ and Gpp(NH)p
NOPr [6] = test system: NOPr; design: method as in Spagnolo et al.,1; conditions: ref Spagnolo et al.,1, cited from earlier work
CHOhKOPr = target: CHOhKOPr; design: method as in Spagnolo et al.,1; conditions: ref Spagnolo et al.,1; cited from earlier work
CHOhNOPr = conditions: ref Spagnolo et al.,1; cited from earlier work
CHOhDOPr = target: CHOhDOPr; design: method as in Spagnolo et al.,1; conditions: ref Spagnolo et al.,1; cited from earlier work
NOPr [7] = target: T2, NOPr; assay: TR-FRET competition binding with tracers 13g and 13h, Lumi4-Tb SNAP-NOPr membranes; conditions: 140 mM Na+, 100 μM Gpp(NH)p, 2 h 37 °C
KOPr = conditions: literature value, reference number not given; read-out: KOPr K i; cited from earlier work
MOPr = conditions: literature value, reference number not given; read-out: MOPr K i; cited from earlier work
DOPr = conditions: literature value, reference number not given; read-out: DOPr K i; cited from earlier work
[8] = IC50, antagonist mode, inhibition of EC80 concentration of N/OFQ, n = 4 in duplicate
[9] = pIC50 ± SEM, antagonist mode, inhibition of EC80 concentration of N/OFQ, n = 4 in duplicate

T2 sequence (P41146 whole entry): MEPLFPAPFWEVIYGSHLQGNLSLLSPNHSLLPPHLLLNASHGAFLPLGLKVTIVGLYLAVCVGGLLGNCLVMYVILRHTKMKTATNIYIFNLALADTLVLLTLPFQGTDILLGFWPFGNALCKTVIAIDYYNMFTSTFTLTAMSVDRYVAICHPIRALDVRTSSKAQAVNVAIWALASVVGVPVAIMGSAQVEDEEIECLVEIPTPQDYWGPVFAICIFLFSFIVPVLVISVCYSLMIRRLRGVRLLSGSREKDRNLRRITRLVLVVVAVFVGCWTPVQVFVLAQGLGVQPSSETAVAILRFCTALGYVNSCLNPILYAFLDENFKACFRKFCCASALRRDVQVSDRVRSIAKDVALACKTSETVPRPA
T1 sequence (P41146 whole entry): as above

O=C(CCCCCNC(=O)COc1ccc(/C=C/C2=[N+]3C(=Cc4ccc(-c5cccs5)n4[B-]3(F)F)C=C2)cc1)NCCOc1ccc(CN2CCC[C@@H]2C(=O)NCCCN2CCC3(CC2)OCc2ccccc23)cc1 [14h, (R,E)-N-(3-(3H-Spiro[isobenzofuran-1,4′-piperidin]-1′-yl)propyl)-1-(4-(2-(6-(2-(4-(2-(5,5-Difluoro-7-(thiophen-2-yl)-5H-4λ^4,5λ^4-dipyrrolo[1,2-c:2′,1′-f][1,3,2]diazaborinin-3-yl)vinyl)phenoxy)acetamido)hexanamido)ethoxy)benzyl)pyrrolidine-2-carboxamide]
specificity of labeling: displacement by SB-612111 / nonspecific labeling (SNAP-NOPr; 1 μM ligand, SB-612111 1 μM): significant nonspecific labeling
reduction in inhibitory potency from N-Boc congener to fluorescent ligand (NOPr [1]): ≥ 20 fold
functional agonism at the NOPr (NOPr [1]; agonist mode, absence of N/OFQ): no functional agonism
IC50 (NOPr [1]; antagonist mode, inhibition of EC80 concentration of N/OFQ, n = 4 in duplicate, read-out: IC50 (converted)): 130 nM
IC50 (NOPr [1]; antagonist mode, inhibition of EC80 concentration of N/OFQ, n = 4 in duplicate, read-out: pIC50 ± SEM (converted)): 126 nM
IC50 (NOPr [1]; supplementary csv, GPA assay antagonist mode, read-out: NOP IC50 (converted)): 126 nM

CN1/C(=C/C=C/C=C/C2=[N+](CCCCCC(=O)NCCOc3cccc(CN4CCC[C@@H]4C(=O)NCCCN4CCC5(CC4)OCc4ccccc45)c3)c3ccc(S(=O)(=O)[O-])cc3C2(C)C)C(C)(C)c2cc(S(=O)(=O)[O-])ccc21.[K+] [13g, Potassium 1-(6-((2-(3-(((R)-2-((3-(3H-Spiro[isobenzofuran-1,4′-piperidin]-1′-yl)propyl)carbamoyl)pyrrolidin-1-yl)methyl)phenoxy)ethyl)amino)-6-oxohexyl)-3,3-dimethyl-2-((1E,3E)-5-((E)-1,3,3-trimethyl-5-sulfonatoindolin-2-ylidene)penta-1,3-dien-1-yl)-3H-indol-1-ium-5-sulfonate]
binding behaviour at the highest concentration tested (NOPr [2]): saturable binding with minimal nonspecific binding
Kd (NOPr [2]; 2 h, 37 °C, n = 3, read-out: saturation KD (converted)): 19.1 nM
Kd (NOPr [2]; 2 h, 37 °C, n = 3, read-out: saturation pKD (converted)): 19.1 nM
selectivity over the other opioid receptors (NOPr [2]; NOPr vs MOPr, DOPr, KOPr): > 100 fold
Kd (NOPr [2]; Table 3, equilibrium saturation binding, read-out: KD NOPr (converted)): 19.1 nM
Kd (NOPr [2]; Table 3, equilibrium saturation binding, read-out: pKD ± SEM NOPr (converted)): 19.1 nM
koff (NOPr [3]; 0–50 nM, over 15 min): 0.00167 s⁻¹
kon (NOPr [3]; 0–50 nM, over 15 min): 51700 M⁻¹ s⁻¹
Kd (NOPr [3]; read-out: kinetic KD (converted)): 35.7 nM
Kd (NOPr [3]; read-out: kinetic pKD (converted)): 35.5 nM
fluorescent ligand binding (confocal images) (SNAP-NOPr): more pronounced binding
reduction in inhibitory potency from N-Boc congener to fluorescent ligand (NOPr [1]): ≥ 5 fold
IC50 (NOPr [1]; [8]): 110 nM
IC50 (NOPr [1]; NOP IC50 (nM), supplementary csv, GPA assay antagonist mode): 109 nM
IC50 (NOPr [1]; NOP pIC50 ± SEM, supplementary csv, GPA assay antagonist mode): 110 nM
IC50 (NOPr [1]; [9]): 100 nM

CN1/C(=C/C=C/C=C/C2=[N+](CCCCCC(=O)NCCOc3ccc(C(=O)N4CCC[C@@H]4C(=O)NCCCN4CCC5(CC4)OCc4ccccc45)cc3)c3ccc(S(=O)(=O)[O-])cc3C2(C)C)C(C)(C)c2cc(S(=O)(=O)[O-])ccc21.[K+] [13f, Potassium 1-(6-((2-(4-((R)-2-((3-(3H-Spiro[isobenzofuran-1,4′-piperidin]-1′-yl)propyl)carbamoyl)pyrrolidine-1-carbonyl)phenoxy)ethyl)amino)-6-oxohexyl)-3,3-dimethyl-2-((1E,3E)-5-((E)-1,3,3-trimethyl-5-sulfonatoindolin-2-ylidene)penta-1,3-dien-1-yl)-3H-indol-1-ium-5-sulfonate]
fluorescent ligand binding (confocal images) (SNAP-NOPr): Binding was observed

N/OFQ: endogenous 17-amino acid neuropeptide agonist nociceptin/orphanin FQ, full NOPr agonist
Ki (NOPr [4]): 0.08 ± 0.03 nM

CN1/C(=C/C=C/C=C/C2=[N+](CCCCCC(=O)NCCOc3ccc(CN4CCC[C@@H]4C(=O)NCCCN4CCC5(CC4)OCc4ccccc45)cc3)c3ccc(S(=O)(=O)[O-])cc3C2(C)C)C(C)(C)c2cc(S(=O)(=O)[O-])ccc21.[K+] [13h, Potassium 1-(6-((2-(4-(((R)-2-((3-(3H-Spiro[isobenzofuran-1,4′-piperidin]-1′-yl)propyl)carbamoyl)pyrrolidin-1-yl)methyl)phenoxy)ethyl)amino)-6-oxohexyl)-3,3-dimethyl-2-((1E,3E)-5-((E)-1,3,3-trimethyl-5-sulfonatoindolin-2-ylidene)penta-1,3-dien-1-yl)-3H-indol-1-ium-5-sulfonate]
binding behaviour at the highest concentration tested (NOPr [2]): saturable binding with minimal nonspecific binding
higher affinity of 13h than 13g (NOPr [2]; saturation KD): 5 fold
fluorescent ligand binding (confocal images) (SNAP-NOPr): more pronounced binding
reduction in inhibitory potency from N-Boc congener to fluorescent ligand (NOPr [1]): ≥ 20 fold

Cc1cccc2c1CC[C@H](CN1CCC(c3c(Cl)cccc3Cl)CC1)C[C@@H]2O [SB-612111, (−)-cis-1-Methyl-7-[[4-(2,6-dichlorophenyl)piperidin-1-yl]methyl]-6,7,8,9-tetrahydro-5 H-benzocyclohepten-5-ol]
Ki (CHOhMOPr): < 1000 nM
pKi CHOhMOPr (CHOhMOPr): < 6.0
change in apparent affinity (K i), Na+ and Gpp(NH)p vs NMDG condition (NOPr [5]): ~1.3 fold
Ki (CHOhKOPr): < 1000 nM
pKi CHOhKOPr (CHOhKOPr): < 6.0
Ki (CHOhNOPr): 0.16 nM
pKi ± SEM CHOhNOPr (CHOhNOPr): 9.80 ± 0.08
Ki (CHOhDOPr): < 5000 nM
pKi CHOhDOPr (CHOhDOPr): < 5.3

CN1/C(=C/C=C/C=C/C2=[N+](CCCCCC(=O)NCCOc3cccc(C(=O)N4CCC[C@@H]4C(=O)NCCCN4CCC5(CC4)OCc4ccccc45)c3)c3ccc(S(=O)(=O)[O-])cc3C2(C)C)C(C)(C)c2cc(S(=O)(=O)[O-])ccc21.[K+] [13e, Potassium 1-(6-((2-(3-((R)-2-((3-(3H-Spiro[isobenzofuran-1,4′-piperidin]-1′-yl)propyl)carbamoyl)pyrrolidine-1-carbonyl)phenoxy)ethyl)amino)-6-oxohexyl)-3,3-dimethyl-2-((1E,3E)-5-((E)-1,3,3-trimethyl-5-sulfonatoindolin-2-ylidene)penta-1,3-dien-1-yl)-3H-indol-1-ium-5-sulfonate]
fluorescent ligand binding (confocal images) (SNAP-NOPr): Binding was observed

CC(C)C1CCC(N2CCC3(CC2)C(=O)N(CCNS(N)(=O)=O)Cc2ccccc23)CC1 (centres unmarked) [AT-121]
Ki (NOPr [7]; read-out: 13h K i ± SEM, tracer 13h (5 nM; 25 nM elsewhere in the source)): 11 ± 10 nM
Ki (NOPr [7]; tracer 13g (20 nM; 5 nM elsewhere in the source), read-out: 13g K i ± SEM): 17 ± 3 nM

O=C(NCCCN1CCC2(CC1)OCc1ccccc12)[C@H]1CCCN1Cc1ccccc1 [C24, (2R)-1-(phenylmethyl)-N-(3-spiro[1H-2-benzofuran-3,4′-piperidine]-1′-ylpropyl)pyrrolidine-2-carboxamide]
Ki (KOPr): > 2500 nM
Ki (MOPr): > 2500 nM
Ki (NOPr [7]; 13g K i ± SEM (nM), tracer 13g (20 nM; 5 nM elsewhere in the source)): 0.06 ± 0.02 nM
Ki (NOPr [7]; 13h K i ± SEM (nM), tracer 13h (5 nM; 25 nM elsewhere in the source)): 0.09 ± 0.0008 nM
Ki (DOPr): > 2500 nM
Ki (NOPr [4]): 0.24 nM
IC50 (NOPr [1]; [8]): 2.7 nM
IC50 (NOPr [1]; [9]): 2.51 nM
